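Following 48 hours of exposure in 96-well plates, responses at five concentrations were used to interpolate endpoints linearly. Here, GI50 denotes the concentration required for 50% inhibition of growth. TGI marks complete inhibition of growth.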 Bounds are passed on as bounds.

Assay in all cases: DTP human tumour cell line panel, 48 h
Assay [1] concerns NCI-H23 lung.
Assay [2] relates to RXF 393 renal.
Assay [3] concerns OVCAR-5 ovarian.
Assay [4] concerns SNB-19 CNS.
The test system of assay [5] is SF-539 CNS.
Assay [6] deals with OVCAR-4 ovarian.
In assay [7] the test system is SW-620 colon.
Assay [8] concerns SNB-75 CNS.
The subject of assay [9] is MDA-MB-231 breast.
Assay [10] relates to M14 melanoma.

Usually GI50 stands for the concentration that inhibits growth by half. What is called TGI is the concentration at which net growth stops. Read a high TGI as lower sensitivity of the cells. For `O=C(O)c1cc(O)c2c(c1)C(C1c3cc(C(=O)O)cc(O)c3C(=O)c3c(OC4OC(CO)C(O)C(O)C4O)cccc31)c1cccc(OC3OC(CO)C(O)C(O)C3O)c1C2=O` (stereo not drawn), the GI50 in [1], in assay [2], in [3], in [4], in assay [5] and in assay [6] was above 100 µM throughout. Moreover, the GI50 in [7], in [8], in assay [9] and in assay [10] was above 100 µM throughout. Also, the TGI in assay [1], in [2], in [3], in assay [4], in [5] and in assay [6] was above 100 µM throughout. In addition, the TGI in [7], in [8], in [9] and in assay [10] was above 100 µM throughout.

`O=c1[nH]c2cc(Cl)ccc2n1C1CCN(CCCC(c2ccc(F)cc2)c2ccc(F)cc2)CC1`: the GI50 in assay [1] was 1.74 µM; in [2] it was 0.48 µM; in [3], 1.74 µM; in [4], 1.83 µM; in [5], 1.64 µM; in assay [6] it was 1.51 µM. Besides, the GI50 is 1.52 µM in [7], 1.27 µM in [8], 1.68 µM in assay [9] and 1.55 µM in assay [10]. The total growth inhibition concentration (TGI) in assay [1] was 3.43 µM; in assay [2], 2.02 µM; in assay [3], 3.43 µM; in assay [4], 3.79 µM; in assay [5] it was 3 µM; in assay [6], 2.9 µM. Further, the TGI was found to be 2.99 µM in [7], 2.73 µM in assay [8], 3.12 µM in assay [9] and 3.05 µM in [10].

On to `Cc1ccc(N(CSc2ccc(Cl)cc2)CSc2ccc(Cl)cc2)cc1`, for which the GI50 in assay [1] was 2.27 µM; in assay [2], 1.73 µM; in assay [3], 1.74 µM; in assay [4], 1.48 µM; in assay [5] it was 1.02 µM; in [6] it was 2.78 µM. Further, the GI50 in assay [7] is 2.22 µM; in [8], 1.39 µM; in assay [9], 0.404 µM; in assay [10] it was 1.48 µM. Moreover, the TGI in assay [1] came out at 10.5 µM; in assay [2] it was 7.57 µM; in [3], 13 µM; in [4], 19.8 µM; in assay [5], 2.59 µM; in assay [6], 31.4 µM. In addition, the total growth inhibition concentration (TGI) in assay [7] amounted to 11.5 µM; in [8], 8.7 µM; in assay [9], 2.5 µM; in [10], 4.45 µM.

For the molecule `CCN(CC)CC(C)(C)C(=O)/C=C/c1ccc(Cl)c(Cl)c1`, the GI50 in assay [1] was 1.9 µM; in [2] it was 1.59 µM; in assay [3], 1.65 µM; in assay [4] it was 1.82 µM; in assay [5] it was 1.85 µM; in assay [6], 1.63 µM. The GI50 in assay [7] is 1.76 µM; in [8] it was 1.3 µM; in [9], 2.06 µM; in assay [10] it was 1.66 µM. The concentration for total growth inhibition (TGI) in [1] was 4.17 µM; in assay [2], 3.1 µM; in assay [3] it was 3.49 µM; in [4] it was 3.54 µM; in assay [5], 3.54 µM; in assay [6], 3.2 µM. The TGI is 4.21 µM in assay [7], 2.93 µM in assay [8], 4.26 µM in [9] and 3.39 µM in assay [10].

For `c1ccc2c3ccn4cc5c(cc4c-3nc2c1)CCCC5`, the GI50 in assay [1] was 3.13 µM; in assay [2] it was 5.62 µM; in assay [3], 4.49 µM; in assay [4], 3.49 µM; in assay [5], 3.4 µM; in [6], 2.85 µM. Besides, the GI50 was 3.12 µM in [8] and 4.47 µM in assay [9]. Also, the TGI was found to be 14.7 µM in assay [1]; 27 µM in [2]; 19.3 µM in [3]; 13.8 µM in [4]; 17.1 µM in [5]; 11 µM in [6]. The TGI in [7] amounted to 9.85 µM; in assay [8], 12.3 µM; in assay [9] it was 20.8 µM; in assay [10] it was 6.41 µM.

For the molecule `O=C(Nc1ccc(Cl)cc1F)c1cc(Br)ccc1O`, the GI50 in assay [1] is 0.659 µM; in assay [2], 0.799 µM; in assay [3], 3.71 µM; in [4], 0.508 µM; in assay [5] it was 0.804 µM; in [6], 0.732 µM. Besides, the GI50 in [7] is 1.46 µM; in assay [8] it was 0.468 µM; in assay [9], 0.968 µM; in assay [10], 0.751 µM. The TGI in assay [1] is 4.69 µM; in assay [2], 3.75 µM; in [3] it was above 100 µM; in assay [4], above 100 µM; in [5], 7.29 µM; in assay [6] it was above 100 µM. Also, the TGI in assay [7] was above 36.2 µM; in assay [8] it was 2.87 µM; in assay [9] it was 8.12 µM; in assay [10] it was 3.75 µM.

With `Nc1nc(Cl)cc(NCCO)n1`, the TGI in assay [1], in assay [2], in assay [3], in [4], in [5] and in assay [6] was above 100 µM throughout. The TGI in [7], in [8], in assay [9] and in [10] was above 100 µM throughout.

Take `Cc1c(C2Nc3ccccc3C2C)[nH]c2ccccc12` (stereo not drawn): the GI50 in [1] was 14.5 µM; in [2] it was 12.4 µM; in assay [3], 14.8 µM; in assay [4] it was 13.8 µM; in [5], 8.72 µM; in assay [6], 6.17 µM. The GI50 in assay [7] was 2.33 µM; in assay [8], 5.06 µM; in assay [9] it was 5.37 µM; in assay [10] it was 15.3 µM. Moreover, the total growth inhibition concentration (TGI) in [1] stood at 32.1 µM; in assay [2] it was 28.8 µM; in [3] it was 30.9 µM; in [4], 38 µM; in [5], 25.1 µM; in assay [6], 21.6 µM. Besides, the TGI turned out to be 32.7 µM in [7], 29.8 µM in assay [8], 21.4 µM in assay [9] and 38.7 µM in assay [10].

Source of the values: PubChem BioAssay (NCI).
